What was measured:
Test in all cases: radiometric filter-binding kinase assay
[1] = molecular target: EPHB2 (human) (UniProt P29323)
[2] = molecular target: CaMK1 (human) (UniProt Q14012)
[3] = molecular target: PAK7 (human) (UniProt Q9P286)
[4] = molecular target: AURKA (human) (UniProt O14965)
[5] = test system: PRKAA1 or PRKAA2 (rat); conditions: accession and sequence are those of the human protein
[6] = molecular target: PAK4 (human) (UniProt O96013)
[7] = molecular target: BRSK2 (human) (UniProt Q8IWQ3)
[8] = molecular target: MAPK10 (human) (UniProt P53779)
[9] = molecular target: ERBB4 (human) (UniProt Q15303)
[10] = molecular target: HIPK2 (human) (UniProt Q9H2X6)
[11] = molecular target: PRKCA (human) (UniProt P17252)
[12] = molecular target: MAPK3 (human) (UniProt P27361)
[13] = molecular target: SYK (human) (UniProt P43405)
[14] = molecular target: MAPKAPK3 (human) (UniProt Q16644)
[15] = molecular target: MAPK12 (human) (UniProt P53778)
[16] = molecular target: DYRK2 (human) (UniProt Q92630)
[17] = molecular target: EPHB3 (human) (UniProt P54753)
[18] = molecular target: MAP2K6 (human) (UniProt P52564)
[19] = molecular target: NUAK1 (human) (UniProt O60285)
[20] = test system: AKT1 (human), P31749 [S473D]
[21] = molecular target: IKBKE (human) (UniProt Q14164)
[22] = molecular target: PLK1 (human) (UniProt P53350)
[23] = molecular target: PRKACA (human) (UniProt P17612)
[24] = molecular target: MAP3K11 (human) (UniProt Q16584)
[25] = molecular target: RPS6KA1 KD1 KD2 (human) (UniProt Q15418)
[26] = molecular target: DYRK1A (human) (UniProt Q13627)
[27] = molecular target: CHEK2 (human) (UniProt O96017)
[28] = molecular target: MAPK1 (human) (UniProt P28482)
[29] = molecular target: MST4 (human) (UniProt Q9P289)
[30] = test system: SGK1 (human), O00141 [S422D]
[31] = molecular target: MKNK1 (human) (UniProt Q9BUB5)
[32] = molecular target: NEK2 (human) (UniProt P51955)
[33] = molecular target: MAPK8 (human) (UniProt P45983)
[34] = molecular target: MAPK13 (human) (UniProt O15264)
[35] = molecular target: MARK2 (human) (UniProt Q7KZI7)

Chain of MKNK1 (human) (Q9BUB5 whole entry, looked up): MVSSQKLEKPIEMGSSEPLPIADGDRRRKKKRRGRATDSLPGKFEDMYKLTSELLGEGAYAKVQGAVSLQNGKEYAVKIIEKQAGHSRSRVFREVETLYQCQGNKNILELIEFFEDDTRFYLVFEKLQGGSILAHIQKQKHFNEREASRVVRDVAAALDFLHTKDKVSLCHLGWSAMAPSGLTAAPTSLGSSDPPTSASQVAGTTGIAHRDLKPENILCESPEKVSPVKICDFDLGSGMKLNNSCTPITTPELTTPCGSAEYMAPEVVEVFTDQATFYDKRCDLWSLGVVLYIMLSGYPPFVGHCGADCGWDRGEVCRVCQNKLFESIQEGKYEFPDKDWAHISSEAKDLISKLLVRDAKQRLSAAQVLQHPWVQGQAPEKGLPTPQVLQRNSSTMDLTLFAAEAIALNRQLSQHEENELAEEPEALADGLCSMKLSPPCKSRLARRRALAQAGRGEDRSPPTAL
Chain of CaMK1 (human) (Q14012 whole entry, looked up): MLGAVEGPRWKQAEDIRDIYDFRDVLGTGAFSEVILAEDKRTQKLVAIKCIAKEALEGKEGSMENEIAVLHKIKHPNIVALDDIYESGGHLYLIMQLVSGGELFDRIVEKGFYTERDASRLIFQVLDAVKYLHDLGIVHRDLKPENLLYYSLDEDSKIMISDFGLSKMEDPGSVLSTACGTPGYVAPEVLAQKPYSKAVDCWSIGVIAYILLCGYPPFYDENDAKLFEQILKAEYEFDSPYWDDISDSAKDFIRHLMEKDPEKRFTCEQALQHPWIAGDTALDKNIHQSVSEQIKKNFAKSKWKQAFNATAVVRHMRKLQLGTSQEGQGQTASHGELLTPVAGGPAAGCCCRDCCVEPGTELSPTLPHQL
Chain of CHEK2 (human) (O96017 whole entry, looked up): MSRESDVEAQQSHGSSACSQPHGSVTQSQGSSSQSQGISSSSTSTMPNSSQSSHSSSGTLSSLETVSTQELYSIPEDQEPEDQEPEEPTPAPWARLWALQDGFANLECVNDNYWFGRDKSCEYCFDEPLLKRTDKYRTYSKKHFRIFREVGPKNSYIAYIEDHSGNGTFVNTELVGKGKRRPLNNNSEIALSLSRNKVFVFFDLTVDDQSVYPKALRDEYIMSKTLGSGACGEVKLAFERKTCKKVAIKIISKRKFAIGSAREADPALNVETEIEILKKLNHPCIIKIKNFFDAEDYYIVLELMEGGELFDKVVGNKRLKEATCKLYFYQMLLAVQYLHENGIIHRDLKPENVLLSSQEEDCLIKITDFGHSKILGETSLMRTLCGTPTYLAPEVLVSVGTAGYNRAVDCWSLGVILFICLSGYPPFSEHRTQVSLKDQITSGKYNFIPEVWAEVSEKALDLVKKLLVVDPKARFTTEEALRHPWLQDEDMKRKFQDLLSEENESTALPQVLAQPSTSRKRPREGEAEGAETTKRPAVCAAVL
Chain of SGK1 (human), O00141 [S422D] (O00141 whole entry S422D, looked up): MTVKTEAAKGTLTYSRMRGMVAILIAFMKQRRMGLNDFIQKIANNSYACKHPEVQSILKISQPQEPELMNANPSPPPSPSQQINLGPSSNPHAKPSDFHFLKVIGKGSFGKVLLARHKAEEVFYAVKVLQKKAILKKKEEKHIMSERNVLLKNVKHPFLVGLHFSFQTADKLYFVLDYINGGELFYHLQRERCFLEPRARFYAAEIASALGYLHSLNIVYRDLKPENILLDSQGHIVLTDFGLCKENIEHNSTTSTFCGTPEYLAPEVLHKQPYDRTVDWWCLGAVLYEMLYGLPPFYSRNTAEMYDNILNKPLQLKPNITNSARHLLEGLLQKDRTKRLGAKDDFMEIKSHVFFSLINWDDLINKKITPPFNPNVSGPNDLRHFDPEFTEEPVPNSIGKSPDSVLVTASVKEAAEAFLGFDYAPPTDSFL
Chain of MAPK3 (human) (P27361 whole entry, looked up): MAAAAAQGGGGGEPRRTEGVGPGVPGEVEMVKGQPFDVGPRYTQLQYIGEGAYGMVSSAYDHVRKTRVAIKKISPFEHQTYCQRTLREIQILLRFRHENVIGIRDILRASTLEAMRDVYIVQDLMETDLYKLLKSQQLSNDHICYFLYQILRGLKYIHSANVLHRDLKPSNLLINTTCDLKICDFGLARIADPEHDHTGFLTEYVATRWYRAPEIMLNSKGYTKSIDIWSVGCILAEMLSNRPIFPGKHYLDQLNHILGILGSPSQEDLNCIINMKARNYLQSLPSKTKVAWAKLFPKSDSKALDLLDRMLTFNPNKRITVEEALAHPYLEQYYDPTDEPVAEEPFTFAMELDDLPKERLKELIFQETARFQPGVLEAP
Chain of NUAK1 (human) (O60285 whole entry, looked up): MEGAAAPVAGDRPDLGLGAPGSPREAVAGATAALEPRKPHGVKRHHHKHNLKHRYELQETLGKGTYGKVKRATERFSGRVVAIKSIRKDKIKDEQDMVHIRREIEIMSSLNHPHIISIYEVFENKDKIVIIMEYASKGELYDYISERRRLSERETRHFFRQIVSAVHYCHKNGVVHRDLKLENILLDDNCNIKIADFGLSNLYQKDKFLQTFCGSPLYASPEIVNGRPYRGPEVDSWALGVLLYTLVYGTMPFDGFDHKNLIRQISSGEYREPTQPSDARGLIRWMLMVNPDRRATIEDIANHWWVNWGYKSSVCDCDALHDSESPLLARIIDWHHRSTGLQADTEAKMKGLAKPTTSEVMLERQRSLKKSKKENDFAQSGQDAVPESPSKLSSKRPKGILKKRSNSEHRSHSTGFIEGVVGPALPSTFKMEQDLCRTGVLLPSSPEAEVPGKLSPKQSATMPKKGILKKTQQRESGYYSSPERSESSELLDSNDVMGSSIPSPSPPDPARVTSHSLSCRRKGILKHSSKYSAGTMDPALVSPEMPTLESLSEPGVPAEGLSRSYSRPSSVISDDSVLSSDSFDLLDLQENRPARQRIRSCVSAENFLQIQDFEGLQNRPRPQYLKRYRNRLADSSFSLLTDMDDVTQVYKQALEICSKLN
Chain of MAPK10 (human) (P53779 whole entry, looked up): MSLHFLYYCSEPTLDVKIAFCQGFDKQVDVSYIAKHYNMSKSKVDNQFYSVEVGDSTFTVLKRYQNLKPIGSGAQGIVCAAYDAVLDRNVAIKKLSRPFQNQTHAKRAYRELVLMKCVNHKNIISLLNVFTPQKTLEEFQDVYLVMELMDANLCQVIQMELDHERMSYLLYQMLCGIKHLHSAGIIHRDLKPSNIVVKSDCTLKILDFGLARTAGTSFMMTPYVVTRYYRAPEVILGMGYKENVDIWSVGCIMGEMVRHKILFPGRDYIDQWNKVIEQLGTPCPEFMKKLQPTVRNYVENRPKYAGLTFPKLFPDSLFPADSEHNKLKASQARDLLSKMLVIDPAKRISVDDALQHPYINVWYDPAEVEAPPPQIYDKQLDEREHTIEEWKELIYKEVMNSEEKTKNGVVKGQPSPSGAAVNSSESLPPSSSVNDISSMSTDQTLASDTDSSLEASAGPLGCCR
Chain of NEK2 (human) (P51955 whole entry, looked up): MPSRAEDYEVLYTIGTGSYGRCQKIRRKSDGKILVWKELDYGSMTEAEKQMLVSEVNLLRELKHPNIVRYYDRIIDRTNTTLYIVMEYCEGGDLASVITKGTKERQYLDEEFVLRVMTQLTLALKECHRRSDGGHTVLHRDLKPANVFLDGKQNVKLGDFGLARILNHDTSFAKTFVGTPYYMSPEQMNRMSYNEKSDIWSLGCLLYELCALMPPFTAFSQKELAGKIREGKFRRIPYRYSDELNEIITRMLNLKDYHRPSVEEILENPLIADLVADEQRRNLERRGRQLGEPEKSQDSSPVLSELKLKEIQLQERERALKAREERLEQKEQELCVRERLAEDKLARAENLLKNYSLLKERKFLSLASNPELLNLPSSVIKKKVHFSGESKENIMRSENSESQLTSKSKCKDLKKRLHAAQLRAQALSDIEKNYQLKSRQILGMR
Chain of BRSK2 (human) (Q8IWQ3 whole entry, looked up): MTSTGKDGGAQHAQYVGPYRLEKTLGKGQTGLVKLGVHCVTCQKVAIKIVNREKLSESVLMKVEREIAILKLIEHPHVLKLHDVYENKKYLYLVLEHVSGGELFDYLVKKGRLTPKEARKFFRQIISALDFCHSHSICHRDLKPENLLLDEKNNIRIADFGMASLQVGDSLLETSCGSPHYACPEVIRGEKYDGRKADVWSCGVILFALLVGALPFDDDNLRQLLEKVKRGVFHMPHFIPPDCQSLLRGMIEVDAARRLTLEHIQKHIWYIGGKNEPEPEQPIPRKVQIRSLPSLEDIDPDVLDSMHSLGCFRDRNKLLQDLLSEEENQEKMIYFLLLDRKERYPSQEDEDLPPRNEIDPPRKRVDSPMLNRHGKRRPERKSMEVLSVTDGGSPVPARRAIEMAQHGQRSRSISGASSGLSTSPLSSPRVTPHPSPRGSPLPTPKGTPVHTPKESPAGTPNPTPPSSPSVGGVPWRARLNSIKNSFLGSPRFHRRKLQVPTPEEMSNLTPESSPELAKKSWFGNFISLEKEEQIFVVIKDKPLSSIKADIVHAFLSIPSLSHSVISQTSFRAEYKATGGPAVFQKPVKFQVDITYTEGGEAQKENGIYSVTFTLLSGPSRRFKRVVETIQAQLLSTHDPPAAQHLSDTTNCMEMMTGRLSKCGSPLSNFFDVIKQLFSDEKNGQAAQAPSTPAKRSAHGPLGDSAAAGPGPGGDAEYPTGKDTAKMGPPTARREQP
Chain of MAPKAPK3 (human) (Q16644 whole entry, looked up): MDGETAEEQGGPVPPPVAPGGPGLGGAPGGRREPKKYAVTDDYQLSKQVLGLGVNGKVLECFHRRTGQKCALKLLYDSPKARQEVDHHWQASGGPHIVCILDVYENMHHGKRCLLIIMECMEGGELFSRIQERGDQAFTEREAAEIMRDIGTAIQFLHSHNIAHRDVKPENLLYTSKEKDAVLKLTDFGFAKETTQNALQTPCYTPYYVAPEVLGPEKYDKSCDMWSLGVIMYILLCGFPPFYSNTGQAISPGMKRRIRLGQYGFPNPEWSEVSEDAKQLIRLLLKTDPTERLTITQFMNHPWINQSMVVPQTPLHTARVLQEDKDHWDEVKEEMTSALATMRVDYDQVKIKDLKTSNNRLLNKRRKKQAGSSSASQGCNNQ

## CNc1nc(-c2ccc3c(N)n[nH]c3c2)cc(N2C[C@@H](C(=O)NC3CCCCC3)CC[C@H]2C)n1
[1]; compound 1.0 µM
  residual activity: 119%
[1]; compound 10.0 µM
  residual activity: 111%
[2]; compound 0.01 µM
  residual activity: 108%
[2]; compound 0.1 µM
  residual activity: 112%
[2]; compound 1.0 µM
  residual activity: 89%
[2]; compound 10.0 µM
  residual activity: 95%
[3]; compound 0.01 µM
  residual activity: 97%
[3]; compound 0.1 µM
  residual activity: 101%
[3]; compound 1.0 µM
  residual activity: 97%
[3]; compound 10.0 µM
  residual activity: 99%
[4]; compound 0.01 µM
  residual activity: 112%
[4]; compound 0.1 µM
  residual activity: 115%
[4]; compound 1.0 µM
  residual activity: 98%
[4]; compound 10.0 µM
  residual activity: 89%
[5]; compound 0.01 µM
  residual activity: 107%
[5]; compound 0.1 µM
  residual activity: 111%
[5]; compound 1.0 µM
  residual activity: 91%
[5]; compound 10.0 µM
  residual activity: 44%
[6]; compound 0.01 µM
  residual activity: 108%
[6]; compound 0.1 µM
  residual activity: 117%
[6]; compound 1.0 µM
  residual activity: 100%
[7]; compound 0.01 µM
  residual activity: 114%
[7]; compound 0.1 µM
  residual activity: 110%
[7]; compound 10.0 µM
  residual activity: 15%
[8]; compound 0.01 µM
  residual activity: 106%
[8]; compound 0.1 µM
  residual activity: 106%
[8]; compound 10.0 µM
  residual activity: 97%
[9]; compound 0.01 µM
  residual activity: 106%
[9]; compound 0.1 µM
  residual activity: 107%
[9]; compound 1.0 µM
  residual activity: 106%
[9]; compound 10.0 µM
  residual activity: 101%
[10]; compound 0.01 µM
  residual activity: 119%
[10]; compound 0.1 µM
  residual activity: 124%
[10]; compound 1.0 µM
  residual activity: 95%
[10]; compound 10.0 µM
  residual activity: 113%
[11]; compound 0.01 µM
  residual activity: 104%
[11]; compound 0.1 µM
  residual activity: 105%
[11]; compound 1.0 µM
  residual activity: 98%
[11]; compound 10.0 µM
  residual activity: 96%
[12]; compound 0.01 µM
  residual activity: 93%
[12]; compound 0.1 µM
  residual activity: 106%
[12]; compound 1.0 µM
  residual activity: 103%
[12]; compound 10.0 µM
  residual activity: 108%
[13]; compound 0.01 µM
  residual activity: 109%
[13]; compound 0.1 µM
  residual activity: 105%
[13]; compound 1.0 µM
  residual activity: 104%
[13]; compound 10.0 µM
  residual activity: 105%
[14]; compound 0.01 µM
  residual activity: 112%
[14]; compound 0.1 µM
  residual activity: 112%
[14]; compound 1.0 µM
  residual activity: 91%
[14]; compound 10.0 µM
  residual activity: 68%
[15]; compound 0.01 µM
  residual activity: 109%
[15]; compound 0.1 µM
  residual activity: 110%
[15]; compound 1.0 µM
  residual activity: 99%
[15]; compound 10.0 µM
  residual activity: 110%
[16]; compound 0.01 µM
  residual activity: 100%
[16]; compound 0.1 µM
  residual activity: 108%
[16]; compound 1.0 µM
  residual activity: 97%
[17]; compound 0.01 µM
  residual activity: 106%
[17]; compound 0.1 µM
  residual activity: 107%
[17]; compound 1.0 µM
  residual activity: 120%
[17]; compound 10.0 µM
  residual activity: 103%
[18]; compound 1.0 µM
  residual activity: 87%
[18]; compound 10.0 µM
  residual activity: 94%
[19]; compound 0.01 µM
  residual activity: 120%
[19]; compound 0.1 µM
  residual activity: 105%
[19]; compound 1.0 µM
  residual activity: 47%
[19]; compound 10.0 µM
  residual activity: 9%
[20]; compound 1.0 µM
  residual activity: 98%
[20]; compound 10.0 µM
  residual activity: 36%
[21]; compound 0.01 µM
  residual activity: 114%
[21]; compound 0.1 µM
  residual activity: 97%
[21]; compound 1.0 µM
  residual activity: 91%
[21]; compound 10.0 µM
  residual activity: 45%
[22]; compound 0.01 µM
  residual activity: 95%
[22]; compound 0.1 µM
  residual activity: 113%
[23]; compound 0.01 µM
  residual activity: 103%
[23]; compound 0.1 µM
  residual activity: 111%
[23]; compound 1.0 µM
  residual activity: 102%
[23]; compound 10.0 µM
  residual activity: 84%
[24]; compound 0.01 µM
  residual activity: 100%
[24]; compound 0.1 µM
  residual activity: 110%
[24]; compound 1.0 µM
  residual activity: 80%
[24]; compound 10.0 µM
  residual activity: 44%
[25]; compound 0.01 µM
  residual activity: 123%
[25]; compound 0.1 µM
  residual activity: 113%
[25]; compound 1.0 µM
  residual activity: 86%
[25]; compound 10.0 µM
  residual activity: 40%
[26]; compound 0.01 µM
  residual activity: 102%
[26]; compound 0.1 µM
  residual activity: 107%
[26]; compound 1.0 µM
  residual activity: 92%
[26]; compound 10.0 µM
  residual activity: 82%
[27]; compound 0.1 µM
  residual activity: 121%
[27]; compound 1.0 µM
  residual activity: 96%
[27]; compound 10.0 µM
  residual activity: 51%
[28]; compound 0.01 µM
  residual activity: 117%
[28]; compound 0.1 µM
  residual activity: 111%
[28]; compound 1.0 µM
  residual activity: 107%
[28]; compound 10.0 µM
  residual activity: 109%
[29]; compound 0.01 µM
  residual activity: 112%
[29]; compound 0.1 µM
  residual activity: 108%
[29]; compound 1.0 µM
  residual activity: 102%
[29]; compound 10.0 µM
  residual activity: 102%
[30]; compound 0.01 µM
  residual activity: 96%
[30]; compound 0.1 µM
  residual activity: 96%
[30]; compound 1.0 µM
  residual activity: 81%
[30]; compound 10.0 µM
  residual activity: 37%
[31]; compound 0.01 µM
  residual activity: 106%
[31]; compound 0.1 µM
  residual activity: 108%
[31]; compound 1.0 µM
  residual activity: 111%
[31]; compound 10.0 µM
  residual activity: 92%
[32]; compound 0.01 µM
  residual activity: 118%
[32]; compound 0.1 µM
  residual activity: 118%
[32]; compound 1.0 µM
  residual activity: 94%
[32]; compound 10.0 µM
  residual activity: 91%
[33]; compound 0.01 µM
  residual activity: 92%
[33]; compound 0.1 µM
  residual activity: 108%
[33]; compound 1.0 µM
  residual activity: 94%
[33]; compound 10.0 µM
  residual activity: 108%
[34]; compound 0.01 µM
  residual activity: 106%
[34]; compound 0.1 µM
  residual activity: 113%
[34]; compound 1.0 µM
  residual activity: 93%
[34]; compound 10.0 µM
  residual activity: 101%
[35]; compound 0.01 µM
  residual activity: 113%
[35]; compound 0.1 µM
  residual activity: 114%
[35]; compound 1.0 µM
  residual activity: 96%
[35]; compound 10.0 µM
  residual activity: 102%

Reference: the kinase profiling compilation of Christmann-Franck et al. (2016)
